Results: ChEMBL document CHEMBL3616405 (J Med Chem, 2015)

Experiments:
[1] = target: T1, Glucagon-like peptide 1 receptor (Homo sapiens, UniProt P43220); test: Displacement of [125I]-GLP1 from human GLP1 receptor expressed in BHK cells after 2 hrs in presence of 2% human serum albumin; format: cell-based
[2] = target: T1, Glucagon-like peptide 1 receptor; test: Agonist activity at human GLP1 receptor expressed in BHK cells after 3 hrs by CRE firefly luciferase reporter gene assay in absence of human serum albumin; format: functional, cell-based
[3] = target: T1, Glucagon-like peptide 1 receptor; test: Displacement of [125I]-GLP1 from human GLP1 receptor expressed in BHK cells after 2 hrs in absence of human serum albumin; format: cell-based

T1 sequence (P43220 whole entry): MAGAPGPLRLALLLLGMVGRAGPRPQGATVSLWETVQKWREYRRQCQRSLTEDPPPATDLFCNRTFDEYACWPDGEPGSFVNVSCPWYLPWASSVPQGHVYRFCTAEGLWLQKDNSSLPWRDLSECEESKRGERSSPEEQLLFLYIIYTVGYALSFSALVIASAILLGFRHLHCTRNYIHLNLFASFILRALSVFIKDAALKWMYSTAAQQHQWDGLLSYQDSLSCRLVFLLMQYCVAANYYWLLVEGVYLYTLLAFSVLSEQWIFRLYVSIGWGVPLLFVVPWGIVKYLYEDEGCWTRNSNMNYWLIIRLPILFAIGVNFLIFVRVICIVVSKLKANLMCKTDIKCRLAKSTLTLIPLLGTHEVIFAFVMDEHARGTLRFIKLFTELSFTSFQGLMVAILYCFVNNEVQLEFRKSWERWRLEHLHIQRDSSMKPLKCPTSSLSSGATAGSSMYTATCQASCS

| Compound | IC50 [1] | EC50 [2] | IC50 [3] |
| --- | --- | --- | --- |
| CCCCCCCCCCCCCCCC(=O)N[C@@H](CCC(=O)NCCOCCOCC(=O)NCCOCCOCC(=O)NCCCC[C@H](NC(=O)[C@H](C)NC(=O)[C@H](C)NC(=O)[C@H](CCC(N)=O)NC(=O)CNC(=O)[C@H](CCC(=O)O)NC(=O)[C@H](CC(C)C)NC(=O)[C@H](Cc1ccc(O)cc1)NC(=O)[C@H](CO)NC(=O)[C@H](CO)NC(=O)[C@@H](NC(=O)[C@H](CC(=O)O)NC(=O)[C@H](CO)NC(=O)[C@@H](NC(=O)[C@H](Cc1ccccc1)NC(=O)[C@@H](NC(=O)CNC(=O)[C@H](CCC(=O)O)NC(=O)C(C)(C)NC(=O)[C@@H](N)Cc1c[nH]cn1)[C@@H](C)O)[C@@H](C)O)C(C)C)C(=O)N[C@@H](CCC(=O)O)C(=O)N[C@@H](Cc1ccccc1)C(=O)N[C@H](C(=O)N[C@@H](C)C(=O)N[C@@H](Cc1c[nH]c2ccccc12)C(=O)N[C@@H](CC(C)C)C(=O)N[C@H](C(=O)N[C@@H](CCCNC(=N)N)C(=O)NCC(=O)N[C@@H](CCCNC(=N)N)C(=O)NCC(=O)O)C(C)C)[C@@H](C)CC)C(=O)O | 3780 pM | – | – |
| CC[C@H](C)[C@H](NC(=O)[C@H](Cc1ccccc1)NC(=O)[C@H](CCC(=O)O)NC(=O)[C@H](CCCCNC(=O)COCCOCCNC(=O)CC[C@H](NC(=O)CCCNC(=O)CCCCCCCCCCCCCCCCC(=O)O)C(=O)O)NC(=O)[C@H](C)NC(=O)[C@H](C)NC(=O)[C@H](CCC(N)=O)NC(=O)CNC(=O)[C@H](CCC(=O)O)NC(=O)[C@H](CC(C)C)NC(=O)[C@H](Cc1ccc(O)cc1)NC(=O)[C@H](CO)NC(=O)[C@H](CO)NC(=O)[C@@H](NC(=O)[C@H](CC(=O)O)NC(=O)[C@H](CO)NC(=O)[C@@H](NC(=O)[C@H](Cc1ccccc1)NC(=O)[C@@H](NC(=O)CNC(=O)[C@H](CCC(=O)O)NC(=O)C(C)(C)NC(=O)[C@@H](N)Cc1c[nH]cn1)[C@@H](C)O)[C@@H](C)O)C(C)C)C(=O)N[C@@H](C)C(=O)N[C@@H](Cc1c[nH]c2ccccc12)C(=O)N[C@@H](CC(C)C)C(=O)N[C@H](C(=O)N[C@@H](CCCNC(=N)N)C(=O)NCC(=O)N[C@@H](CCCNC(=N)N)C(=O)NCC(=O)O)C(C)C | 20700 pM | 10.7 pM | – |
| CCCCCCCCCCCCCCCCCCCC(=O)N[C@@H](CCC(=O)NCCOCCOCC(=O)NCCOCCOCC(=O)NCCCC[C@H](NC(=O)[C@H](C)NC(=O)[C@H](C)NC(=O)[C@H](CCC(N)=O)NC(=O)CNC(=O)[C@H](CCC(=O)O)NC(=O)[C@H](CC(C)C)NC(=O)[C@H](Cc1ccc(O)cc1)NC(=O)[C@H](CO)NC(=O)[C@H](CO)NC(=O)[C@@H](NC(=O)[C@H](CC(=O)O)NC(=O)[C@H](CO)NC(=O)[C@@H](NC(=O)[C@H](Cc1ccccc1)NC(=O)[C@@H](NC(=O)CNC(=O)[C@H](CCC(=O)O)NC(=O)C(C)(C)NC(=O)[C@@H](N)Cc1c[nH]cn1)[C@@H](C)O)[C@@H](C)O)C(C)C)C(=O)N[C@@H](CCC(=O)O)C(=O)N[C@@H](Cc1ccccc1)C(=O)N[C@H](C(=O)N[C@@H](C)C(=O)N[C@@H](Cc1c[nH]c2ccccc12)C(=O)N[C@@H](CC(C)C)C(=O)N[C@H](C(=O)N[C@@H](CCCNC(=N)N)C(=O)NCC(=O)N[C@@H](CCCNC(=N)N)C(=O)NCC(=O)O)C(C)C)[C@@H](C)CC)C(=O)O | 880 pM | 4.8 pM | 180 pM |
| CC[C@H](C)[C@H](NC(=O)[C@H](Cc1ccccc1)NC(=O)[C@H](CCC(=O)O)NC(=O)[C@H](CCCCN)NC(=O)[C@H](C)NC(=O)[C@H](C)NC(=O)[C@H](CCC(N)=O)NC(=O)CNC(=O)[C@H](CCC(=O)O)NC(=O)[C@H](CC(C)C)NC(=O)[C@H](Cc1ccc(O)cc1)NC(=O)[C@H](CO)NC(=O)[C@H](CO)NC(=O)[C@H](CCCCNC(=O)COCCOCCNC(=O)COCCOCCNC(=O)CC[C@H](NC(=O)CCCCCCCCCCCCCCCCC(=O)O)C(=O)O)NC(=O)[C@H](CC(=O)O)NC(=O)[C@H](CO)NC(=O)[C@@H](NC(=O)[C@H](Cc1ccccc1)NC(=O)[C@@H](NC(=O)CNC(=O)[C@H](CCC(=O)O)NC(=O)C(C)(C)NC(=O)[C@@H](N)Cc1c[nH]cn1)[C@@H](C)O)[C@@H](C)O)C(=O)N[C@@H](C)C(=O)N[C@@H](Cc1c[nH]c2ccccc12)C(=O)N[C@@H](CC(C)C)C(=O)N[C@H](C(=O)N[C@@H](CCCCN)C(=O)NCC(=O)N[C@@H](CCCNC(=N)N)C(=O)NCC(=O)O)C(C)C | 25500 pM | 9.9 pM | 500 pM |
| CC[C@H](C)[C@H](NC(=O)[C@H](Cc1ccccc1)NC(=O)[C@H](CCC(=O)O)NC(=O)[C@H](CCCCNC(=O)COCCOCCNC(=O)COCCOCCNC(=O)c1ccc(CN(CCC(=O)O)C(=O)CCCCCCCCCCCCCCCCC(=O)O)cc1)NC(=O)[C@H](C)NC(=O)[C@H](C)NC(=O)[C@H](CCC(N)=O)NC(=O)CNC(=O)[C@H](CCC(=O)O)NC(=O)[C@H](CC(C)C)NC(=O)[C@H](Cc1ccc(O)cc1)NC(=O)[C@H](CO)NC(=O)[C@H](CO)NC(=O)[C@@H](NC(=O)[C@H](CC(=O)O)NC(=O)[C@H](CO)NC(=O)[C@@H](NC(=O)[C@H](Cc1ccccc1)NC(=O)[C@@H](NC(=O)CNC(=O)[C@H](CCC(=O)O)NC(=O)C(C)(C)NC(=O)[C@@H](N)Cc1c[nH]cn1)[C@@H](C)O)[C@@H](C)O)C(C)C)C(=O)N[C@@H](C)C(=O)N[C@@H](Cc1c[nH]c2ccccc12)C(=O)N[C@@H](CC(C)C)C(=O)N[C@H](C(=O)N[C@@H](CCCNC(=N)N)C(=O)NCC(=O)N[C@@H](CCCNC(=N)N)C(=O)NCC(=O)O)C(C)C | 51700 pM | – | 9190 pM |
| CC[C@H](C)[C@H](NC(=O)[C@H](Cc1ccccc1)NC(=O)[C@H](CCC(=O)O)NC(=O)[C@H](CCCCNC(=O)COCCOCCNC(=O)COCCOCCNC(=O)CCCCCCCCCCCCCCC(=O)O)NC(=O)[C@H](C)NC(=O)[C@H](C)NC(=O)[C@H](CCC(N)=O)NC(=O)CNC(=O)[C@H](CCC(=O)O)NC(=O)[C@H](CC(C)C)NC(=O)[C@H](Cc1ccc(O)cc1)NC(=O)[C@H](CO)NC(=O)[C@H](CO)NC(=O)[C@@H](NC(=O)[C@H](CC(=O)O)NC(=O)[C@H](CO)NC(=O)[C@@H](NC(=O)[C@H](Cc1ccccc1)NC(=O)[C@@H](NC(=O)CNC(=O)[C@H](CCC(=O)O)NC(=O)C(C)(C)NC(=O)[C@@H](N)Cc1c[nH]cn1)[C@@H](C)O)[C@@H](C)O)C(C)C)C(=O)N[C@@H](C)C(=O)N[C@@H](Cc1c[nH]c2ccccc12)C(=O)N[C@@H](CC(C)C)C(=O)N[C@H](C(=O)N[C@@H](CCCNC(=N)N)C(=O)NCC(=O)N[C@@H](CCCNC(=N)N)C(=O)NCC(=O)O)C(C)C | 12800 pM | 166 pM | 3250 pM |
| CCCCCCCCCCCCCCCCCC(=O)N[C@@H](CCC(=O)NCCOCCOCC(=O)NCCOCCOCC(=O)NCCCC[C@H](NC(=O)[C@H](C)NC(=O)[C@H](C)NC(=O)[C@H](CCC(N)=O)NC(=O)CNC(=O)[C@H](CCC(=O)O)NC(=O)[C@H](CC(C)C)NC(=O)[C@H](Cc1ccc(O)cc1)NC(=O)[C@H](CO)NC(=O)[C@H](CO)NC(=O)[C@@H](NC(=O)[C@H](CC(=O)O)NC(=O)[C@H](CO)NC(=O)[C@@H](NC(=O)[C@H](Cc1ccccc1)NC(=O)[C@@H](NC(=O)CNC(=O)[C@H](CCC(=O)O)NC(=O)C(C)(C)NC(=O)[C@@H](N)Cc1c[nH]cn1)[C@@H](C)O)[C@@H](C)O)C(C)C)C(=O)N[C@@H](CCC(=O)O)C(=O)N[C@@H](Cc1ccccc1)C(=O)N[C@H](C(=O)N[C@@H](C)C(=O)N[C@@H](Cc1c[nH]c2ccccc12)C(=O)N[C@@H](CC(C)C)C(=O)N[C@H](C(=O)N[C@@H](CCCNC(=N)N)C(=O)NCC(=O)N[C@@H](CCCNC(=N)N)C(=O)NCC(=O)O)C(C)C)[C@@H](C)CC)C(=O)O | 1990 pM | 3.2 pM | 40 pM |
| CC[C@H](C)[C@H](NC(=O)[C@H](Cc1ccccc1)NC(=O)[C@H](CCC(=O)O)NC(=O)[C@H](CCCCN)NC(=O)[C@H](C)NC(=O)[C@H](C)NC(=O)[C@H](CCC(N)=O)NC(=O)CNC(=O)[C@H](CCC(=O)O)NC(=O)[C@H](CC(C)C)NC(=O)[C@H](Cc1ccc(O)cc1)NC(=O)[C@H](CO)NC(=O)[C@H](CO)NC(=O)[C@@H](NC(=O)[C@H](CC(=O)O)NC(=O)[C@H](CO)NC(=O)[C@@H](NC(=O)[C@H](Cc1ccccc1)NC(=O)[C@@H](NC(=O)CNC(=O)[C@H](CCC(=O)O)NC(=O)C(C)(C)NC(=O)[C@@H](N)Cc1c[nH]cn1)[C@@H](C)O)[C@@H](C)O)C(C)C)C(=O)N[C@@H](C)C(=O)N[C@@H](Cc1c[nH]c2ccccc12)C(=O)N[C@@H](CC(C)C)C(=O)N[C@H](C(=O)N[C@@H](CCCNC(=N)N)C(=O)NCC(=O)N[C@@H](CCCNC(=N)N)C(=O)NCC(=O)N[C@@H](CCCCNC(=O)COCCOCCNC(=O)COCCOCCNC(=O)CCCCCCCCCCCCCCCCC(=O)O)C(=O)O)C(C)C | 6730 pM | 67.5 pM | 270 pM |
| CC[C@H](C)[C@H](NC(=O)[C@H](Cc1ccccc1)NC(=O)[C@H](CCC(=O)O)NC(=O)[C@H](CCCCNC(=O)COCCOCCNC(=O)COCCOCCNC(=O)CC[C@H](NC(=O)CCCCCCCCCCCCC(=O)O)C(=O)O)NC(=O)[C@H](C)NC(=O)[C@H](C)NC(=O)[C@H](CCC(N)=O)NC(=O)CNC(=O)[C@H](CCC(=O)O)NC(=O)[C@H](CC(C)C)NC(=O)[C@H](Cc1ccc(O)cc1)NC(=O)[C@H](CO)NC(=O)[C@H](CO)NC(=O)[C@@H](NC(=O)[C@H](CC(=O)O)NC(=O)[C@H](CO)NC(=O)[C@@H](NC(=O)[C@H](Cc1ccccc1)NC(=O)[C@@H](NC(=O)CNC(=O)[C@H](CCC(=O)O)NC(=O)C(C)(C)NC(=O)[C@@H](N)Cc1c[nH]cn1)[C@@H](C)O)[C@@H](C)O)C(C)C)C(=O)N[C@@H](C)C(=O)N[C@@H](Cc1c[nH]c2ccccc12)C(=O)N[C@@H](CC(C)C)C(=O)N[C@H](C(=O)N[C@@H](CCCNC(=N)N)C(=O)NCC(=O)N[C@@H](CCCNC(=N)N)C(=O)NCC(=O)O)C(C)C | 8870 pM | 15.7 pM | 2650 pM |
